Assay results reported in ChEMBL document CHEMBL1909046, “DrugMatrix in vitro pharmacology data”.

Legend:
Cannabinoid receptor 1 = Cannabinoid receptor 1 (Homo sapiens, UniProt P21554); assay type: cell membranes, Chem-1, Membrane; conditions: chem-1; further: in other assays of this panel Not Active means under 50% inhibition at 10 µM
[1] = target: T1, C-C chemokine receptor type 4 (Homo sapiens, UniProt P51679); assay type: cell membranes, Membrane; conditions: chem-1; further: in other assays of this panel Not Active means under 50% inhibition at 10 µM
T1 sequence (P51679 whole entry): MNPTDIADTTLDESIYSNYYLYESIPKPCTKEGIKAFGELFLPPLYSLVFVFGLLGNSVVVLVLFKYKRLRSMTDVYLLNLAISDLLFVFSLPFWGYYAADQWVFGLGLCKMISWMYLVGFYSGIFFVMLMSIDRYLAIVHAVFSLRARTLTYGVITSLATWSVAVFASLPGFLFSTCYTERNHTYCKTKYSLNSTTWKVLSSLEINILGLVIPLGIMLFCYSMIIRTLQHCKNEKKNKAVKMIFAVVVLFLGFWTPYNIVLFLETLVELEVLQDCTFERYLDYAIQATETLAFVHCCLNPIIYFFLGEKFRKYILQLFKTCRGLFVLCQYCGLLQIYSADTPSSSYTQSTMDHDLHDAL

D(4) dopamine receptor = target: T2, D(4) dopamine receptor (Homo sapiens, UniProt P21917); assay: DRUGMATRIX: Dopamine D4.2 radioligand binding (ligand: [3H] Spiperone); assay type: cell membranes, Membrane; conditions: cho-k1; Not Active = under 50% inhibition at 10 µM
T2 sequence (P21917 whole entry): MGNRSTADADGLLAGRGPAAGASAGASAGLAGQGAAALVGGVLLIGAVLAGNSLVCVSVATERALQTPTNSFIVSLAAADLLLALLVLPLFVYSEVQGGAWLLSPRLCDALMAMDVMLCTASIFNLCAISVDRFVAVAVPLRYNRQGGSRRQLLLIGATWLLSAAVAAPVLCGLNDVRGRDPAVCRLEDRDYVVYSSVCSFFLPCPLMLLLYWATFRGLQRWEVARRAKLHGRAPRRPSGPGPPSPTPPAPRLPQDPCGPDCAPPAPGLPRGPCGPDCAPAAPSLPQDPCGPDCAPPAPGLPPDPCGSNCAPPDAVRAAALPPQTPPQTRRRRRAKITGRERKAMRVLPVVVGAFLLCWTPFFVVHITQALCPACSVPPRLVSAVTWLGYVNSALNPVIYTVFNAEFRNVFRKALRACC

[2] = DRUGMATRIX: Interleukin IL-1 radioligand binding (ligand: [125I] interleukin 1beta); assay type: cell membranes, Membrane; conditions: nih3t3; Not Active = under 50% inhibition at 10 µM
[3] = DRUGMATRIX: Phosphodiesterase PDE4 enzyme inhibition (substrate: [3H]cAMP + cAMP); conditions: u-937; Not Active = under 50% inhibition at 10 µM
[4] = DRUGMATRIX: Platelet-Derived Growth Factor (PDGF) radioligand binding (ligand: [125I] PDGF); assay type: cell-based; conditions: nih3t3; Not Active = under 50% inhibition at 10 µM
Progesterone receptor = target: T3, Progesterone receptor (Bos taurus, UniProt Q690N0); assay: DRUGMATRIX: Progesterone radioligand binding (ligand: [3H] R-5020); assay type: tissue-based, Uterus; conditions: Not Active = under 50% inhibition at 10 µM
T3 sequence (Q690N0 whole entry): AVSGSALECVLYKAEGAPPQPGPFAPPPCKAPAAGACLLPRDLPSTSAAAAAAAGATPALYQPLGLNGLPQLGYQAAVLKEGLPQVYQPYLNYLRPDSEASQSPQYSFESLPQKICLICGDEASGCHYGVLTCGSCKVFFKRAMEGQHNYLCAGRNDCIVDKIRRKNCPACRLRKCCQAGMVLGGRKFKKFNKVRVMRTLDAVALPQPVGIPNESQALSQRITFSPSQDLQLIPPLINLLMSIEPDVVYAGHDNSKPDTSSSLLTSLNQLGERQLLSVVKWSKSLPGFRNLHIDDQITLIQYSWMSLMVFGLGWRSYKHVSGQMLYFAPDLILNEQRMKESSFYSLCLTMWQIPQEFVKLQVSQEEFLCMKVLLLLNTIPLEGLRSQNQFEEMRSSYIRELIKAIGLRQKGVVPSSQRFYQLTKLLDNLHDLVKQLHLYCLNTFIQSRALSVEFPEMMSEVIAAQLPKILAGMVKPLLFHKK

[5] = target: Voltage-gated inwardly rectifying potassium channel KCNH2 (Homo sapiens, UniProt Q12809); conditions: hek293; further: in other assays of this panel Not Active means under 50% inhibition at 10 µM
Sequence of Voltage-gated inwardly rectifying potassium channel KCNH2 (Q12809 whole entry): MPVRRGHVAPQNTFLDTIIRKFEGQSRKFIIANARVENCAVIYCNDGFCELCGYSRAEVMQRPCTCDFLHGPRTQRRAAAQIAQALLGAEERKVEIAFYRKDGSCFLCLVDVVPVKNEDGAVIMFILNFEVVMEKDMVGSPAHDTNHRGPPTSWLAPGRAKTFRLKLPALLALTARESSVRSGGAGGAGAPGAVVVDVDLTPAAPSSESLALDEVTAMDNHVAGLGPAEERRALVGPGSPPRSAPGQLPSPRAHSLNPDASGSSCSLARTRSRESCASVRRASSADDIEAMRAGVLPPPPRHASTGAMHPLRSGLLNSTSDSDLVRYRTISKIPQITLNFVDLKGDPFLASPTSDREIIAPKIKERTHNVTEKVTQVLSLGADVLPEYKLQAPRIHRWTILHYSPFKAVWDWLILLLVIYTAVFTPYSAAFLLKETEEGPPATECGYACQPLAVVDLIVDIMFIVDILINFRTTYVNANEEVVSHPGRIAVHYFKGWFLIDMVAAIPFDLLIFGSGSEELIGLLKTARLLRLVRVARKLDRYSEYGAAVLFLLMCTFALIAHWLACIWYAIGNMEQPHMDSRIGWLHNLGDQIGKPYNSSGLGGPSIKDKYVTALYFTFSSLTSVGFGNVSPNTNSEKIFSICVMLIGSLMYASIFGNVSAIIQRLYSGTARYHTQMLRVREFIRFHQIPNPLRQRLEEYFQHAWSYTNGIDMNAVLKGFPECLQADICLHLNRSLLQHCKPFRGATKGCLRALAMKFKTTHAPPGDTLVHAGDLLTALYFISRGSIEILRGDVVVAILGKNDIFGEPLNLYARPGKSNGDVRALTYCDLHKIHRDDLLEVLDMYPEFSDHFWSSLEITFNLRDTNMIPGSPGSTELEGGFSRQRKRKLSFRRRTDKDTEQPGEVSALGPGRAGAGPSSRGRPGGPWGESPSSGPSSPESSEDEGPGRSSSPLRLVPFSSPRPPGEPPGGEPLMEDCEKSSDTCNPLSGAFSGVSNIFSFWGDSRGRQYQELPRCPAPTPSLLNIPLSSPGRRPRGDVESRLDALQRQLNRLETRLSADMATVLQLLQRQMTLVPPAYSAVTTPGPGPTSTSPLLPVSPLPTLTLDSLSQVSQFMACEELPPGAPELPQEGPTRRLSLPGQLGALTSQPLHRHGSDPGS

Sequence of Cannabinoid receptor 1 (P21554 whole entry): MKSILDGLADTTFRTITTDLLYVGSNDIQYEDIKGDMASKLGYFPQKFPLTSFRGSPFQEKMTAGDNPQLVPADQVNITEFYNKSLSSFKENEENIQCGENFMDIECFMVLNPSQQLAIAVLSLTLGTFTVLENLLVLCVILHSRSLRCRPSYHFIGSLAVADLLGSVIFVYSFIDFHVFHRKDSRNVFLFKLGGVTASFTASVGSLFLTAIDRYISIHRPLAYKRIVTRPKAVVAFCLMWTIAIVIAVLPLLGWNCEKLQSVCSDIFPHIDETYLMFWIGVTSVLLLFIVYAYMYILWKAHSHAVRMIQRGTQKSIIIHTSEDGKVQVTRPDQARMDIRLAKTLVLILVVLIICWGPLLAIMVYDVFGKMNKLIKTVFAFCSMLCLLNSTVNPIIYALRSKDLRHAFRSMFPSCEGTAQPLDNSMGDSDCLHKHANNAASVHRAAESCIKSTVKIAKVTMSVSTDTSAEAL

C[C@@]12C(=O)OC(=O)[C@]1(C)[C@H]1CC[C@@H]2O1 [CANTHARIDIN]
Not Active: IC50 (Cannabinoid receptor 1) | IC50 [1] | IC50 (D(4) dopamine receptor) | IC50 [2] | Ki [2] | IC50 [3] | Ki [3] | IC50 [4] | Ki [4] | IC50 (Progesterone receptor) | IC50 [5] | Ki [5]

O=NN(CCCl)C(=O)NCCCl [CARMUSTINE]
Not Active: IC50 (Cannabinoid receptor 1) | IC50 [1] | IC50 (D(4) dopamine receptor) | IC50 [2] | Ki [2] | IC50 [3] | Ki [3] | IC50 [4] | Ki [4] | IC50 (Progesterone receptor) | IC50 [5] | Ki [5]

ClC(Cl)Cl [CHLOROFORM]
Not Active: IC50 (Cannabinoid receptor 1) | IC50 [1] | IC50 (D(4) dopamine receptor) | IC50 [2] | Ki [2] | IC50 [3] | Ki [3] | IC50 [4] | Ki [4] | IC50 (Progesterone receptor) | IC50 [5] | Ki [5]

C[N+](C)(C)CCO.[Cl-] [CHOLINE CHLORIDE]
Not Active: IC50 (Cannabinoid receptor 1) | IC50 [1] | IC50 (D(4) dopamine receptor) | IC50 [2] | Ki [2] | IC50 [3] | Ki [3] | IC50 [4] | Ki [4] | IC50 (Progesterone receptor) | IC50 [5] | Ki [5]

CCOC(=O)C(C)(C)Oc1ccc(Cl)cc1 [CLOFIBRATE]
Not Active: IC50 (Cannabinoid receptor 1) | IC50 [1] | IC50 (D(4) dopamine receptor) | IC50 [2] | Ki [2] | IC50 [3] | Ki [3] | IC50 [4] | Ki [4] | IC50 (Progesterone receptor) | IC50 [5] | Ki [5]

CC(=O)OCC(=O)[C@@]1(O)CC[C@H]2[C@@H]3CCC4=CC(=O)CC[C@]4(C)[C@H]3C(=O)C[C@@]21C [CORTISONE ACETATE]
Not Active: IC50 (Cannabinoid receptor 1) | IC50 [1] | IC50 (D(4) dopamine receptor) | IC50 [2] | Ki [2] | IC50 [3] | Ki [3] | IC50 [4] | Ki [4] | IC50 (Progesterone receptor) | IC50 [5] | Ki [5]

O=c1ccc2ccccc2o1 [COUMARIN]
Not Active: IC50 (Cannabinoid receptor 1) | IC50 [1] | IC50 (D(4) dopamine receptor) | IC50 [2] | Ki [2] | IC50 [3] | Ki [3] | IC50 [4] | Ki [4] | IC50 (Progesterone receptor) | IC50 [5] | Ki [5]

C[C@@H]1C[C@@H]([C@H](O)CC2CC(=O)NC(=O)C2)C(=O)[C@@H](C)C1 [CYCLOHEXIMIDE]
Not Active: IC50 (Cannabinoid receptor 1) | IC50 [1] | IC50 (D(4) dopamine receptor) | IC50 [2] | Ki [2] | IC50 [3] | Ki [3] | IC50 [4] | Ki [4] | IC50 (Progesterone receptor) | IC50 [5] | Ki [5]

CN(C)/N=N/c1[nH]cnc1C(N)=O [DACARBAZINE]
Not Active: IC50 (Cannabinoid receptor 1) | IC50 [1] | IC50 (D(4) dopamine receptor) | IC50 [2] | Ki [2] | IC50 [3] | Ki [3] | IC50 [4] | Ki [4] | IC50 (Progesterone receptor) | IC50 [5] | Ki [5]

COc1ccc2c(c1)[C@]13CCCC[C@@H]1[C@H](C2)N(C)CC3 [DEXTROMETHORPHAN]
Not Active: IC50 (Cannabinoid receptor 1) | IC50 [1] | IC50 (D(4) dopamine receptor) | IC50 [2] | Ki [2] | IC50 [3] | Ki [3] | IC50 [4] | Ki [4] | IC50 (Progesterone receptor) | IC50 [5] | Ki [5]

CC(=O)Nc1c(I)c(NC(C)=O)c(I)c(C(=O)O)c1I [DIATRIZOIC ACID]
Not Active: IC50 (Cannabinoid receptor 1) | IC50 [1] | IC50 (D(4) dopamine receptor) | IC50 [2] | Ki [2] | IC50 [3] | Ki [3] | IC50 [4] | Ki [4] | IC50 (Progesterone receptor) | IC50 [5] | Ki [5]

COP(=O)(OC)OC=C(Cl)Cl [DICHLORVOS]
Not Active: IC50 (Cannabinoid receptor 1) | IC50 [1] | IC50 (D(4) dopamine receptor) | IC50 [2] | Ki [2] | IC50 [3] | Ki [3] | IC50 [4] | Ki [4] | IC50 (Progesterone receptor) | IC50 [5] | Ki [5]

O=C(O)Cc1ccccc1Nc1c(Cl)cccc1Cl [DICLOFENAC]
Not Active: IC50 (Cannabinoid receptor 1) | IC50 [1] | IC50 (D(4) dopamine receptor) | IC50 [2] | Ki [2] | IC50 [3] | Ki [3] | IC50 [4] | Ki [4] | IC50 (Progesterone receptor) | IC50 [5] | Ki [5]

C[C@H]1O[C@@H](O[C@H]2[C@@H](O)C[C@H](O[C@H]3[C@@H](O)C[C@H](O[C@H]4CC[C@@]5(C)[C@H](CC[C@@H]6[C@@H]5CC[C@]5(C)[C@@H](C7=CC(=O)OC7)CC[C@]65O)C4)O[C@@H]3C)O[C@@H]2C)C[C@H](O)[C@@H]1O [DIGITOXIN]
Not Active: IC50 (Cannabinoid receptor 1) | IC50 [1] | IC50 (D(4) dopamine receptor) | IC50 [2] | Ki [2] | IC50 [3] | Ki [3] | IC50 [4] | Ki [4] | IC50 (Progesterone receptor) | IC50 [5] | Ki [5]
